{"source": "paper PMC10121968", "about": "“Fosgonimeton, a Novel Positive Modulator of the HGF/MET System, Promotes Neurotrophic and Procognitive Effects in Models of Dementia” (Neurotherapeutics, 2022)", "key": {"[1]": {"assay": "Fosgonimeton CNS distribution in rats", "assay_type": "in vivo, rat", "settings": "12 mg/kg fosgonimeton SC, all brain regions", "method": "Three male Sprague Dawley rats per time point were given 12 mg/kg fosgonimeton via SC injection. At 0.16, 0.5, and 1 h after dosing, animals were humanely killed and perfused with chilled saline. Brains were collected and dissected into the following brain regions: whole brain, striatum, olfactory bulb, hippocampus, cerebellum, cerebral cortex, and brainstem. Brain regions were homogenized and the exposures of fosgonimeton and fosgo-AM were determined by LC/MS/MS."}, "[2]": {"assay": "Fosgonimeton solubility (filtration/HPLC in PBS)", "assay_type": "physicochemical", "settings": "osmolarity-corrected PBS", "method": "Fosgonimeton solubility studies were contracted to GVK Biosciences, Hyderabad, India. Stocks of fosgonimeton were prepared in duplicate at several concentrations in osmolarity-corrected PBS and were vortexed to dissolve into solution. The solutions were filtered through a 0.45-µm filter followed by a 0.22-µm filter to remove insoluble particulates. Pre- and postfiltration aliquots were collected, and their concentration was determined via high-performance liquid chromatography."}, "Fosgonimeton PK in mice": {"assay": "Fosgonimeton PK in mice", "assay_type": "in vivo, mouse", "settings": "0.75 mg/kg SC, first tested time point", "method": "Three male BALBc mice were treated with 0.75 mg/kg fosgonimeton in saline with 0.1% glycine via SC injection. Blood was serially collected at 0.25, 0.5, 1, 2, and 4 h after dosing. Plasma was obtained by centrifugation with 2% disodium EDTA as an anticoagulant. Plasma samples were precipitated with acetonitrile containing internal standard, and the concentration of fosgonimeton and fosgo-AM was determined by LC/MS/MS."}, "[3]": {"test_system": "LPS-induced neuroinflammatory mouse model", "assay": "LPS-induced cognitive impairment, T-maze spontaneous alternation", "assay_type": "in vivo", "settings": "14 days", "method": "All animal manipulations were conducted in accordance with the European Directive 2010/63/UE published in the French decree 2013–118 of February 1, 2013, and approved by an independent government-accredited ethics committee (CEEA 35, NEUROFIT, France). Animals for the study consisted of 90 four- to five-week-old CD-1 mice (Janvier, Le Genest St Isle, France). Mice were group-housed and maintained in a room with controlled temperature (21–22 °C) and reversed 12/12 light/dark cycle. The animals had access to food and water ad libitum.\nMice were sorted into the following experimental groups: saline + vehicle (control), LPS + vehicle (LPS), LPS + 0.1 mg/kg memantine, and LPS + fosgonimeton at 0.125, 0.25, 0.5, 1, or 1.25 mg/kg (LPS + fosgo). On day 0 of the study, all groups received either a single intraperitoneal injection of saline or LPS (0.25 mg/kg). During days 1–14, animals received memantine or fosgonimeton treatment once daily. On day 14, 60 min after the last dosing with test compounds or vehicle, mice were assessed for performance on the T-maze spontaneous alternation task.\nThe T-maze apparatus was made of gray Plexiglas with a main stem (55 cm × 10 cm × 20 cm) and 2 arms (30 cm × 10 cm × 20 cm) positioned at a 90° angle relative to the main stem. A start box (15 cm × 10 cm) was separated from the main stem by a guillotine door. Horizontal doors were also provided to close specific arms during the “forced-choice” alternation task.\nThe experimental protocol consisted of a single session, which started with 1 forced-choice trial, followed by 14 “free-choice” trials. In the forced-choice trial, the animal was confined for 5 s in the start arm and was then released while either the left or the right goal arm was blocked by a horizontal door. Animals were allowed to explore the maze, eventually entering the open goal arm and afterward returning to the start position. […] The animal was considered to have entered an arm if it placed all 4 paws in the arm. The session was terminated and the animal was removed from the maze after 14 free-choice trials were performed or 10 min elapsed, whichever occurred first. The apparatus was cleaned between each animal run using 70% ethanol. During the trials, animal handling and the visibility of the operator were controlled to minimize interference during testing.\nThe percentage of alternations over the 14 free-choice trials was determined for each mouse and was used as an index of working memory performance. This percentage was defined as entry into a different goal arm of the T maze over successive trials (e.g., left–right–left–right) and was calculated using the formula: %Alternations=Number of Alternations/14×100\nAdditionally, percentage of recovery was calculated by normalizing the control group to 100% and the LPS group to 0% and calculating the respective relative response for each individual animal, as follows: %Recovery=(Individual%alternation-meanLPS%alternation)/(Meancontrol%alternation-meanLPS%alternation)\nData were assessed for normality (Shapiro–Wilk) and homoscedasticity (Brown-Forsythe). One-way ANOVA was performed on the data for spontaneous alternations. Dunnett multiple comparison test was used for post hoc pairwise comparisons with the LPS group. The Kruskal–Wallis test was used for percentage of recovery with Dunn’s multiple comparison post hoc test. A value of p < 0.05 was considered to represent a statistically significant difference."}, "[4]": {"assay": "Plasma PK in rats after SC injection", "assay_type": "in vivo, rat", "settings": "SC", "method": "Four male rats were treated with 10 mg/kg fosgo-AM in DMSO via SC injection. Blood was serially collected at 0.08, 0.25, 0.5, 1, 2, and 4 h after dosing. Plasma was obtained by centrifugation with 2% disodium ethylenediaminetetraacetic acid (EDTA) as an anticoagulant. Plasma samples were precipitated with acetonitrile containing internal standard, and the concentration of fosgo-AM was determined by LC/MS/MS.\nThis study was conducted as described in the “Fosgo-AM PK in Rats” section with the following changes: animals were given 12 mg/kg fosgonimeton in saline with 0.1% glycine via SC injection, and a dose-linear correction was applied to normalize the dose to 10 mg/kg for comparison with the fosgo-AM study. Sample concentrations of both fosgonimeton and fosgo-AM were determined."}, "[5]": {"test_system": "primary rat hippocampal neurons", "assay": "Neurite outgrowth assay (beta-III tubulin staining)", "assay_type": "cell-based", "settings": "HGF alone 5 ng/mL, 4 days, vs vehicle", "method": "On day 0, rat hippocampal neurons from newborn pups were isolated and cultured in brain neuronal culture medium (neurobasal medium supplemented with 5% FBS, 2% B-27 supplement, and 0.003% gentamycin) at 37 °C under 5% CO2. At 1 day in vitro (DIV1), cells were transferred to a poly-D-lysine–coated 24-well plate at approximately 10,000 cells/well. Cells were then grown in […] of serum-free medium and treated with the following: 0.1% dimethyl sulfoxide (DMSO; vehicle), 10 nM dihydrotestosterone (positive control), 10 nM fosgo-AM, 1 nM fosgo-AM, 5 ng/ml HGF, or 5 ng/ml HGF + 1 nM fosgo-AM. All treatments contained a final concentration of 0.1% DMSO. For the neurite outgrowth assay, treatment media were refreshed on DIV3, and cells were processed for analysis on DIV4. For the synaptogenesis assay, treatment media were refreshed on DIV3 and DIV6, and cells were processed for analysis on DIV8. Processing for both the neurite outgrowth and the synaptogenesis assays was performed as follows: media were removed, and cells were fixed with 100% methanol for 20 min at RT before methanol was aspirated and each well was washed twice with Dulbecco’s phosphate-buffered saline (DPBS). Cells were permeabilized using 0.02% […] (ThermoFisher, Waltham, Massachusetts) in DPBS for 2 min at RT without shaking, and plates were blocked with 5% bovine serum albumin (BSA) in DPBS for 1 h at RT. Plates were then incubated overnight at 4 °C with gentle shaking with use of beta-III tubulin antibody (ab201740; Abcam, Boston, Massachusetts) to assess neurite outgrowth or with use of 1:500 rabbit anti–synaptobrevin-II antibody (Synaptic Systems, cat# 104 202, Göttingen, Germany) to assess synaptogenesis. After overnight incubation, plates were washed 3 times with DPBS and incubated for 1 h at RT with use of anti–rabbit immunoglobulin G–secondary antibody conjugated to Alexa Fluor 488 (Life Technologies, Carlsbad, California, 1:500). After 5 DPBS washes, coverslips were mounted on slides using fluorescent mounting medium (Golden Bridge International Labs, Bothell, Washington, cat# E19-s). Imaging was performed using the BX43 Olympus microscope driven by the standard “CellSens” software by Olympus. […] Ten images of single cells from a total of 2 assays were analyzed using NeuroJ plug-in for ImageJ to assess neurite outgrowth, as neurite length and the number of branches per neuron were counted for each cell. For the synaptogenesis assay, synaptic count (number of synapses) and synaptic strength (relative abundance of presynaptic vesicles per synapse as measured by synaptobrevin-II fluorescence intensity) were quantified for each cell. Data were assessed for normality (Shapiro–Wilk) and homoscedasticity (Brown-Forsythe). […]"}, "ERK (Thr202/Tyr204)": {"test_system": "ERK (Thr202/Tyr204)", "assay": "Phospho-ERK HTRF assay in HEK293 cells", "assay_type": "cell-based, human", "settings": "HEK293, HGF 10 ng/mL, vs no HGF treatment", "excerpt": "To determine phosphoactivation status of the intracellular signaling molecules ERK (Thr202/Tyr204) or AKT (Ser473), we used homogenous time-resolved fluorescence (HTRF) kits to assess phosphorylation status based on the energy transfer between donor and acceptor phospho-ERK (pERK) or phospho-AKT (pAKT) antibodies. HTRF kit processing for pERK (Phospho-ERK [Thr202/Tyr204] cellular Advanced kit, #64AERPEG, Cisbio, Codolet, France) and pAKT (Phospho-AKT [Ser473] cellular kit, #64AKSPEG, Cisbio, Codolet, France) were carried out per manufacturer instructions. In brief, HEK293 cells were grown at 37 °C, 5% CO2 in DMEM + 10% FBS until approximately 80% confluent. Cells were seeded in polystyrene-treated 96-well cell culture plates at approximately 50,000 cells/well and cultured overnight in 50 µL serum-free growth media. […] Fluorescence emission at 2 different wavelengths (665 nm and 620 nm) were measured on an Envision plate reader (PerkinElmer, Waltham, Massachusetts), and the HTRF ratio of the acceptor and donor emission signals for each well was calculated as follows: HTRF ratio = (665 nm/620 nm) × 10,000. […] Data were assessed for normality (Shapiro–Wilk) and homoscedasticity (Brown-Forsythe). Statistical significance was determined by one-way analysis of variance (ANOVA) with Tukey’s multiple comparison post-test. […]"}, "MDCK cells": {"test_system": "MDCK cells", "assay": "MDCK cell scatter behavior assay", "assay_type": "cell-based, canine", "settings": "HGF 40 ng/mL, 24 h", "method": "Madin-Darby canine kidney (MDCK, ATCC CCL-34) cells were grown at 37 °C, 5% CO2 in Eagle’s Minimum Essential Medium (EMEM) + 10% FBS in T-75 flasks until 80% confluent. Cells were then plated at 1400 cells/well in black-walled, clear-bottom 96-well plates and grown at 37 °C under 5% CO2 for 24 h. Growth media were replaced by serum-free media for 2 h before treatment. Treatments containing HGF and fosgo-AM were made in serum-free media and applied in quintuplicates for 24 h at 37 °C under 5% CO2. Cells were then fixed in chilled 100% EtOH at 4 °C for 20 min and then stained with wheat germ agglutinin conjugated to CF488 (WGA488, Biotium, 29,022–1, Fremont, California) at […] in phosphate-buffered saline (PBS) for 30 min at RT to visualize whole-cell surfaces. Cultures were then imaged with an iCys instrument (iCyte, Thor Labs, Newton, New Jersey) and analyzed with the ImageJ (National Institutes of Health) particle count feature. Scattering behavior was quantified by normalizing particle counts against total stained area. […] Data were assessed for normality (Shapiro–Wilk) and homoscedasticity (Brown-Forsythe). The statistical difference from HGF alone was determined by one-way ANOVA with Dunnett’s multiple comparison post-test with an alpha value of 0.05 (Prism, GraphPad)."}}, "note": "Non-standard residues stand in square brackets, D forms with d. Residues, ends and D or L forms follow the SMILES beside them. *: point of attachment. pY = N[C@@H](Cc1ccc(OP(=O)(O)O)cc1)C(=O)O; Hexanoyl = CCCCCC(=O)*; Ahx = NCCCCCC(=O)O", "data": [{"molecule": "CCCCCC(=O)N[C@@H](Cc1ccc(OP(=O)(O)O)cc1)C(=O)N[C@H](C(=O)NCCCCCC(N)=O)[C@@H](C)CC", "note": "[fosgonimeton] (Hexanoyl-[pY]-Ile-[Ahx]-NH2)", "values": [{"measurement": "detection in brain regions", "setting": "[1]", "result": "undetectable"}, {"measurement": "solubility in aqueous solutions", "setting": "[2]", "result": "greater than 70 mg/mL"}, {"measurement": "time of appearance of active compound fosgo-AM after fosgonimeton", "setting": "Fosgonimeton PK in mice", "result": "≤ 15", "unit": "min"}, {"measurement": "percentage of recovery (spontaneous alternations)", "setting": "[3]; 0.25 mg/kg SC once daily", "result": 61.76, "unit": "%"}, {"measurement": "percentage of recovery (spontaneous alternations)", "setting": "[3]; 0.5 mg/kg SC once daily", "result": 79.40, "unit": "%"}, {"measurement": "percentage of recovery (spontaneous alternations)", "setting": "[3]; 1 mg/kg SC once daily", "result": 64.70, "unit": "%"}, {"measurement": "percentage of recovery (spontaneous alternations)", "setting": "[3]; 1.25 mg/kg SC once daily", "result": 64.70, "unit": "%"}, {"measurement": "percentage of spontaneous alternations vs LPS group", "setting": "[3]; 0.25, 0.5, 1 and 1.25 mg/kg SC once daily", "result": "significantly ameliorated these deficits"}, {"measurement": "fold higher fosgo-AM Cmax vs equivalent direct dose of fosgo-AM", "setting": "[4]", "result": "~4", "unit": "fold"}, {"measurement": "systemic exposure of fosgo-AM vs equivalent direct dose of fosgo-AM", "setting": "[4]", "result": "higher systemic exposure"}, {"measurement": "time of appearance of active compound fosgo-AM after fosgonimeton", "setting": "[4]; first tested time point", "result": "≤ 5", "unit": "min"}]}, {"molecule": "CC12CC3CC(C)(C1)CC(N)(C3)C2", "note": "[memantine, reference compound]", "values": [{"measurement": "percentage of spontaneous alternations vs LPS group", "setting": "[3]; 0.1 mg/kg I.P. once daily", "result": "significantly prevented LPS-induced cognitive deficits"}, {"measurement": "percentage of recovery (spontaneous alternations)", "setting": "[3]; positive control, 0.1 mg/kg I.P. once daily", "result": 76.40, "unit": "%"}]}, {"molecule": "HGF: Recombinant HGF protein (R&D Systems), ligand of the MET receptor", "values": [{"measurement": "neurite length per cell", "setting": "[5]", "result": "no significant differences compared with vehicle"}, {"measurement": "pERK levels", "setting": "ERK (Thr202/Tyr204)", "result": "significantly increased pERK versus no HGF treatment"}, {"measurement": "cell scattering behavior", "setting": "MDCK cells", "result": "significantly increased cell scattering behavior"}]}]}
